Measured values as given in PMC10762035, “Molecular basis of human trace amine-associated receptor 1 activation” (Nature Communications, 2024).
Numbering of substitutions follows the chain as printed. Several values for one entry are separate records, joined by “and”; a condition that tells them apart may be missing. Equal entries are not always repeated. Where two headings read alike, the source gives them in different places.

Columns and labels:
[1] = target: T1, β2AR-Nterm-hTA1-F112^3.41W (CryoEM Construct) (Homo sapiens, UniProt Q96RJ0, F112W); test: GloSensor cAMP accumulation assay, cryoEM construct; format: cell-based;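 further: cells transiently co-transfected with the receptor construct and GloSensor cAMP biosensor, luminescence read after 30 min compound exposure at room temperature in the dark as cAMP accumulation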;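 on Normalized Luminescence Counts (N=2): normalized to the maximum response of β-PEA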
T1 construct: FLAG (N); 10xHis (N); TEV protease site (N); expressed in transfected cells; host or cells: HEK293T
T1 sequence (Q96RJ0 with tags, fused parts or gaps F112W): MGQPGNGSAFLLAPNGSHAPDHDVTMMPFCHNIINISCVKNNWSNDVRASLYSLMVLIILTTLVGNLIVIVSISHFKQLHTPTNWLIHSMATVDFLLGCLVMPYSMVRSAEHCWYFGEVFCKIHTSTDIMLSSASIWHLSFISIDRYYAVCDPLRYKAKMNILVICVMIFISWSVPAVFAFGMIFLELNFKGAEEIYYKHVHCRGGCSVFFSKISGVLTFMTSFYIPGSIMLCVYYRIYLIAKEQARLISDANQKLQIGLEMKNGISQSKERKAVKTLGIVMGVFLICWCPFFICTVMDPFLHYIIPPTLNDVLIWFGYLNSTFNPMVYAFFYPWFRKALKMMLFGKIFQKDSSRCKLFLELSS

hTA1 T194A = target: T2, hTA1 T194A (Homo sapiens, UniProt Q96RJ0, T194A); test: GloSensor cAMP accumulation assay, T194A mutant; settings: for cAMP accumulation response, individual replicate values of the concentration-response curve: hTA1 T194A, log[Agonist], Supplementary Figure 5 source data
T2 sequence (Q96RJ0 1-339 T194A): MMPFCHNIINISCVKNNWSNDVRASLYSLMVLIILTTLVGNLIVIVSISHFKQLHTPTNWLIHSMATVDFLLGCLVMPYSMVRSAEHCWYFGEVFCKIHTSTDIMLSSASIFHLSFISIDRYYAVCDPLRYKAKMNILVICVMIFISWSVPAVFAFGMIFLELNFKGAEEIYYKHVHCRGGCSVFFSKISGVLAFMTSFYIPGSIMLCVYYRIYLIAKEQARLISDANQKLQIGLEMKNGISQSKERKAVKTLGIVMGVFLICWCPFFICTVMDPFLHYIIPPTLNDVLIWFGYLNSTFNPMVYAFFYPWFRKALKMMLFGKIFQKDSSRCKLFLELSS

hTA1 C13S = target: T3, hTA1 C13S (Homo sapiens, UniProt Q96RJ0, C13S); test: GloSensor cAMP accumulation assay, C13S mutant; format: cell-based
T3 construct: expressed in transfected cells; host or cells: HEK293T
T3 sequence (Q96RJ0 1-339 C13S): T2 sequence (Q96RJ0 1-339 T194A) with C13S, A194T

hTA1 C5S = target: T4, hTA1 C5S (Homo sapiens, UniProt Q96RJ0, C5S); test: GloSensor cAMP accumulation assay, C5S mutant; format: cell-based; settings: for C5S - Normalized Luminescence Counts (N=2): log[Compound], single wells
T4 construct: expressed in transfected cells; host or cells: HEK293T
T4 sequence (Q96RJ0 1-339 C5S): T2 sequence (Q96RJ0 1-339 T194A) with C5S, A194T

hTA1 I290Y = target: T5, hTA1 I290Y (Homo sapiens, UniProt Q96RJ0, I290Y); test: GloSensor cAMP accumulation assay, I290Y mutant; format: cell-based; settings: for cAMP accumulation response, normalized (concentration-response source data, single replicate values): hTA1 I290Y (N=3), log[Compound];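 on cAMP accumulation response, normalized (concentration-response source data, single replicate values): normalized to the maximum response of β-PEA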
T5 construct: expressed in transfected cells; host or cells: HEK293T
T5 sequence (Q96RJ0 1-339 I290Y): T2 sequence (Q96RJ0 1-339 T194A) with A194T, I290Y

[2] = Cryo EM Construct minus WT average

## CCc1[nH]nc(C(=O)Nc2ccc([C@H]3CNCCO3)cc2)c1C [ralmitaront]
[1]; [2]
  ΔEmax values (each mutant value - WT average), Mean: 72.2357 and 63.0743
  ΔpEC50 values (each mutant value - WT average), Mean: -1.146 and -1.03
[1]; Cryo EM Construct, mean of each independent experiment (3 replicates)
  Emax values, Mean: -1.146 and -1.03
[1]; CryoEM Construct, log[Compound], M = -5, single replicates
  Normalized Luminescence Counts (N=2): 105.279 and 102.248 and 77.3142 and 99.3117
[1]; CryoEM Construct, n=2, read-out: Span ± SEM (Emax normalized to β-PEA)
  Emax: 107 ± 3.32%
hTA1 T194A; T149A (so in the source), single experiments (3 replicates each), β-PEA = 100
  Emax values, Mean: 41.3499 and 73.0935 and 32.2156
hTA1 T194A; M = -7.522
  cAMP accumulation response, individual replicate values of the concentration-response curve: 13.1191 and 7.983 and 9.958 and 19.2742 and 14.6569 and 26.511
hTA1 T194A; M = -8
  cAMP accumulation response, individual replicate values of the concentration-response curve: 2.846 and 8.97 and 3.241 and 12.5702 and 15.1897 and 10.4391
hTA1 T194A; M = -8.522
  cAMP accumulation response, individual replicate values of the concentration-response curve: 0.8706 and -0.5123 and 0.673 and 2.359 and 3.025 and 2.8472
hTA1 T194A; M = -9
  cAMP accumulation response, individual replicate values of the concentration-response curve: -1.105 and -0.3148 and -1.895 and 1.693 and 2.048 and 2.27
hTA1 T194A; M = -9.522
  cAMP accumulation response, individual replicate values of the concentration-response curve: -1.895 and -1.698 and -1.5 and -0.7934 and 0.4941 and -0.3494
hTA1 T194A; M = -10
  cAMP accumulation response, individual replicate values of the concentration-response curve: -0.9074 and -1.105 (2×) and -0.2606 and -0.1274 and 0.9825
hTA1 T194A; M = -10.522
  cAMP accumulation response, individual replicate values of the concentration-response curve: -2.29 and -1.105 (2×) and -0.971 and -0.5714 and -0.1274
hTA1 T194A; M = -11
  cAMP accumulation response, individual replicate values of the concentration-response curve: -1.105 (2×) and -0.5123 and -0.1274 and -0.527 and -0.3938
hTA1 T194A; M = -11.522
  cAMP accumulation response, individual replicate values of the concentration-response curve: -1.5 and -0.9074 and -1.895 and -0.4826 and 0.2722 and -0.3494
hTA1 T194A; M = -12
  cAMP accumulation response, individual replicate values of the concentration-response curve: -1.105 (2×) and -0.5123 and -0.8378 and -0.9266 and 0.05017
hTA1 T194A; M = -12.522
  cAMP accumulation response, individual replicate values of the concentration-response curve: -0.5123 and -1.105 (2×) and -0.527 and 0.05017 and -0.6158
hTA1 T194A; read-out: Span ± SEM (Emax normalized to β-PEA), T194A
  Emax: 48.9 ± 20.4%
hTA1 C13S; C13S
  ΔpEC50 values (each mutant value - WT average): -0.1563 and -0.05083
hTA1 C13S; C13S, Mean of fit per experiment
  Emax values: 28.9629
hTA1 C13S; C13S, Mean of fit per experiment, read-out: Emax values
  Emax: 23.8%
hTA1 C13S; C13S, n=2, read-out: Span ± SEM (Emax normalized to β-PEA)
  Emax: 26.4 ± 2.6%
hTA1 C13S; log[Compound], M = -5, single wells
  C13S - Normalized Luminescence Counts (N=2): 24.7419 and 34.2578 and 19.4511 and 28.8102 and 35.1294 and 22.0805
hTA1 C5S; C5S, n=2, read-out: Span ± SEM (Emax normalized to β-PEA)
  Emax: 53 ± 3.33%
hTA1 C5S; hTA1 C5S minus WT average
  ΔEmax values (each mutant value - WT average), Mean: 16.2371 and 9.571
  ΔpEC50 values (each mutant value - WT average), Mean: -0.2888 and -0.07449
hTA1 C5S; hTA1 C5S, β-PEA = 100, mean of 3 replicates, one line per independent experiment
  Emax values, Mean: 49.6851
hTA1 C5S; hTA1 C5S, β-PEA = 100, mean of 3 replicates, one line per independent experiment, read-out: Emax values, Mean
  Emax: 56.4%
hTA1 C5S; M = -5
  C5S - Normalized Luminescence Counts (N=2): 56.5093 and 57.6833 and 45.4685 and 47.3256 and 58.0276 and 41.5948
hTA1 C5S; M = -5.522
  C5S - Normalized Luminescence Counts (N=2): 55.6739 and 48.0198 and 44.2267 and 42.3543 and 55.8182 and 41.3187
hTA1 C5S; M = -6
  C5S - Normalized Luminescence Counts (N=2): 54.1385 and 48.494 and 48.3811 and 37.8664 and 46.5661 and 38.2116
hTA1 C5S; M = -6.522
  C5S - Normalized Luminescence Counts (N=2): 36.3243 and 27.5639 and 26.277 and 37.3831 and 32.0666 and 36.4855
hTA1 C5S; M = -7
  C5S - Normalized Luminescence Counts (N=2): 17.0199 and 14.6491 and 16.7715 and 16.6005 and 20.1908 and 19.0861
hTA1 I290Y; I290Y, read-out: Span ± SEM (Emax normalized to β-PEA)
  Emax: 17.6 ± 2.61%
hTA1 I290Y; I290Y, single experiments (3 replicates each), β-PEA = 100
  Emax values, Mean: 14.0517 and 22.6718 and 15.9842
hTA1 I290Y; M = -5
  cAMP accumulation response, normalized (concentration-response source data, single replicate values): 15.3564 and 19.3577 and 13.5096 and 22.3431 and 15.3808 and 18.6787 and 17.3474 and 21.8593 and 16.2195
hTA1 I290Y; M = -5.522
  cAMP accumulation response, normalized (concentration-response source data, single replicate values): 12.5863 and 17.5109 and 9.201 and 20.8774 and 14.2815 and 17.213 and 8.324 and 11.7076 and 15.0915
hTA1 I290Y; M = -6
  cAMP accumulation response, normalized (concentration-response source data, single replicate values): 6.738 and 15.972 and 11.3551 and 15.0144 and 31.5041 and 26.3739 and 8.324 and 3.812 and 11.7076
hTA1 I290Y; M = -6.522
  cAMP accumulation response, normalized (concentration-response source data, single replicate values): 9.508 and 11.6629 and 4.584 and 19.0452 and 19.7781 and 16.4801 and 8.324 (2×) and 15.0915
hTA1 I290Y; M = -7
  cAMP accumulation response, normalized (concentration-response source data, single replicate values): 5.199 and 18.1265 and 8.893 and 8.052 and 10.6171 and 15.0144 and 6.068 (2×) and 10.5796
hTA1 I290Y; M = -7.522
  cAMP accumulation response, normalized (concentration-response source data, single replicate values): 5.815 and 14.7408 and 3.6603 and 6.22 and 6.586 and 4.754 and 1.556 and -0.7002 and 0.4278
hTA1 I290Y; M = -8
  cAMP accumulation response, normalized (concentration-response source data, single replicate values): 4.584 and 6.738 and 6.43 and 5.853 and 4.388 and 1.823 and -2.956 and -1.828 and -0.7002
hTA1 I290Y; M = -8.522
  cAMP accumulation response, normalized (concentration-response source data, single replicate values): -1.264 and 1.506 and 0.8902 and -4.04 and -4.407 and 4.021 and -5.212 and -4.0841 and -2.956
hTA1 I290Y; M = -9
  cAMP accumulation response, normalized (concentration-response source data, single replicate values): -2.496 and -0.341 and -1.88 and -5.14 and -1.109 and 9.151 and -5.212 and -4.0841 and -2.956
hTA1 I290Y; M = -9.522
  cAMP accumulation response, normalized (concentration-response source data, single replicate values): -3.7267 and -1.264 and -2.803 and -1.475 and -4.407 and 4.388 and -4.0841 (2×) and -2.956
hTA1 I290Y; M = -10
  cAMP accumulation response, normalized (concentration-response source data, single replicate values): -2.188 (2×) and -0.6488 and -5.873 and -0.7424 and -6.239 and -2.956 (2×) and -1.828
hTA1 I290Y; M = -10.522
  cAMP accumulation response, normalized (concentration-response source data, single replicate values): -2.496
